Experimental data as given in US20110189174A1, “COMPOSITIONS AND METHODS FOR TREATING, REDUCING, AMELIORATING, ALLEVIATING, OR INHIBITING PROGRESSION OF, PATHOGENIC OCULAR NEOVASCULARIZATION” (priority 2010, published 2011).

System: human retinal endothelial cells (HREC)
Test: Testing 5: VEGF-induced HREC proliferation (MTS assay), echistatin and Avastin alone and in combination
Type: cell-based
Experimental: HREC were first cultured overnight in a 96-well plate coated with fibronectin. The next day, cells were serum-starved for 2 h before treatment. Medium containing different agents as shown in table below was pre-incubated for 1 h before being added to cells. The cells were cultured at 37° C., 5% CO2, and 95% humidity for another 3 days. After that, cell proliferation was estimated by the MTS assay. […] Normal human IgG was also added to different groups in such a way that all groups contained the same amounts of IgG protein.
A 96-well plate was coated with human fibronectin (10 μg/mL) for 5 hours. HREC were collected from flasks by EDTA-trypsin treatment and re-suspended in 10% FBS CS-C medium at 15,000 cells/mL. Cells (200 μL) were added to the plate and cultured overnight at 37° C., 5% CO2, and 95% humidity. Next day, the medium was removed and 200 μl/well serum free medium was added.
All medium solutions were incubated for 1 h at 37° C. After carefully aspirating the medium from cells, […], of the medium containing the different agents was added into appropriate wells. The cells were cultured for another 3 days.
At the end of incubation, the medium was carefully aspirated from cells and 120 μl of MTS working solution was added into all wells including blank wells (without cells). The plate was incubated at 37° C., 5% CO2, and 95% humidity for 1 hour and then absorbance was read by a plate reader at 490 nm wavelength.
Median optical density (OD) was generated from different groups. Data were expressed as mean±SEM of the OD values. Statistical analysis was performed using a one or two-way ANOVA using Box-Cox transformed data if needed, and P<0.05 was considered statistically significant. […] All the data from the individual wells were fitted to a re-parameterized four-parameter logistic equation to obtain IC50 using similar methodology as that previously described and utilizing the statistical analysis software JMP (SAS Institute, Cary, N.C.).

## bevacizumab [Avastin, reference compound]
VEGF 10 ng/mL, estimated
  IC50 ± SE of Avastin alone on inhibiting VEGF-induced proliferation of HREC: 21 ng/mL
Echistatin 2 nM, Avastin 0.625-10 ng/ml (significant at 10 ng/ml), VEGF 10 ng/mL
  Inhibition of VEGF-induced HREC proliferation, agent alone: dose-dependent inhibition
Echistatin 2 nM, Avastin 0.625-10 ng/ml, no VEGF
  HREC proliferation under basal conditions: no effect
